In US20150072395A1, “RECOMBINANT MICROORGANISMS AND METHODS OF USE THEREOF” (priority 2013, published 2015):

What was measured:
[1] = tested on: E. coli TOP10 harbouring pMTL85151-pheS*; assay: Testing pheS* in E. coli (plating on LB with chloramphenicol and DL-4-chlorophenylalanine); format: cell-based
Protocol: To test the ability of the counter selection marker to work in E. coli, the plasmid pMTL85151-pheS* was transformed into TOP10 and grown under chloramphenicol selection only. Once the culture had reached an OD of 0.5, representing an exponential growth phase, 100 ul was plated onto LB plates containing chloramphenicol and DL-4-chlorophenylalanine as well as chloramphenicol alone as a control, in triplicate, […]

[2] = tested on: E. coli Top10 harbouring the empty vector pMTL85151; assay: Toxicity testing of DL-4-chlorophenylalanine, E. coli with empty vector; format: cell-based; settings: plates and liquid media, 24 hours
Protocol: (§1) E. coli Top10 and C. autoethanogenum DSM23693 harbouring the empty vector pMTL85151 were grown initially in the presence of DL-4-chlorophenylanine on plates and in liquid media to ascertain if the counter-selection marker has any effect on growth of the organisms.

[3] = tested on: C. autoethanogenum DSM23693 harbouring pMTL85151-pheS*; format: cell-based, Clostridium autoethanogenum; settings: summary statement
Protocol: (§2) The three independent transformants of C. atoethanogenum DSM23693 harbouring pMTL85151-pheS*, as well as C. autoethanogenum DSM23693 harbouring pMTL85151, were grown in liquid PECT media supplemented with thiamphenicol and grown at 37° C. under CO only conditions. After 24 hours, 100 ul of each of the three independent, as well as the control pMTL85151, were plated into PETC-MES agar supplemented with either thiamphenicol alone, or thiamphenicol and DL-4-chlorophenylalanine and incubated for 48 hours.

[4] = tested on: C. autoethanogenum DSM23693 harbouring pMTL85151; assay: Toxicity/sensitivity testing of DL-4-chlorophenylalanine, C. autoethanogenum with empty vector; format: cell-based, Clostridium autoethanogenum
Protocol: as §1, §2

LZ-pMTL83155 = assay: Sensitivity of C. autoethanogenum transformants to ganciclovir (plating on PETC agar), empty-vector strain; format: cell-based, Clostridium autoethanogenum
Protocol: (§3) The pMTL83155, pMTL83155-Hsv-tk and pMTL85155-PheS plasmids were introduced into C. autoethanogenum DSM23693 (a derivate of DSM10061) as described in WO2012053905. Outgrowth was performed in PETC broth and spread on PETC-agar media supplemented with 15 μg/ml thiamphenicol (Sigma) and 10 μg/ml trimethoprim (Sigma). Colonies were observed after 3 days of incubation at 37° C. in pressurized gas jars with 20 psi of a gas mix of 48% CO3 2% H2, 20% CO2, 30% N2. Streaks of single colonies were made on PETC-agar media containing 15 μg/mlthiamphenicol.
(§4) The sensitivity of LZ-pMTL83155 and LZ-pMTL83155-hsv-tk to ganciclovir was tested by plating them on PETC agar media containing 20 nM ganciclovir only and PETC agar media containing 20 nM ganciclovir and 15 μg/ml thiamphenicol. […] The presence of Hvs-tk gene confers toxicity to ganciclovir.

LZ-pMTL83155-hsv-tk = format: cell-based, Clostridium autoethanogenum
Protocol: as §3, with “Colonies were observed after 3 days of incubation at 37° C. in pressurized gas jars with 20 psi of a gas mix of 48% CO3 2% H2, 20% CO2, 30% N2.” left out
as §4

Row | Structure (SMILES) | Growth on plates with chloramphenicol and DL-4-chlorophenylalanine ([1]; 24 hours at 37° C., compared with chloramphenicol alone) | Growth on plates with chloramphenicol and DL-4-chlorophenylalanine ([1]; after 36 hours) | Effect on growth [2] | Counterselection in combination with PheS* [3] | Sensitivity to prodrug: growth on plate, column LZ-pMTL83155 ([4]; DL-4-Chlorophenlanine 0.20%, CSM PheS, control strain without CSM) | Growth on double selection plates (thiamphenicol and DL-4-chlorophenylalanine) ([4]; PETC-MES agar, 48 hours) | Effect on growth ([4]; plates and liquid media, 48 hours) | Colonies on ganciclovir plates (LZ-pMTL83155; 20 nM ganciclovir, with or without 15 μg/ml thiamphenicol) | Sensitivity to prodrug: growth on plate, LZ-pMTL83155 (LZ-pMTL83155; Ganciclovir 20 nM, CSM Hsv-tk) | Sensitivity to prodrug: growth on plate, LZ-pMTL83155-hsv-tk (LZ-pMTL83155-hsv-tk; Ganciclovir 20 nM, CSM Hsv-tk, PETC agar) | Counterselection in combination with HSV-Tk (LZ-pMTL83155-hsv-tk; summary statement)
1 | NC(Cc1ccc(Cl)cc1)C(=O)O (racemic) [DL-4-chlorophenylalanine] | a light shading of small colonies | outgrown to the same level as the chloramphenicol alone plates | did not impede growth of either organism in liquid media or on plates | effective for counterselection in C. autoethanogenum | Lawn | the same results as the thiamphenicol only plate | did not impede growth of either organism in liquid media or on plates |  |  |  | 
2 | Nc1nc(O)c2ncn(COC(CO)CO)c2n1 [Ganciclovir, ganciclovir] |  |  |  |  |  |  |  | observed only with LZ-pMTL83155 transformants | Lawn | 0-5 ^ | effective for counterselection in C. autoethanogenum
